Results on 1 compound are retold here after US20240139190A1, “NOVEL ANTIPARASITIC COMPOUNDS AND METHODS” (The Board of Regents of The University of Texas System, priority 2019, published 2024).

Experiment [1] relates to L. amazonensis promastigotes and amastigotes. Nature of the experiment: Tubulin intensity by confocal immunofluorescence microscopy. It is filed as cell-based, Leishmania amazonensis. Conditions: 24 h at EC50^72 h. As to the method:
Promastigotes or amastigotes were treated with the indicated compound concentrations and allowed to adhere to poly-L-lysine coated plates. All cells were fixed with 4% paraformaldehyde and permeabilized/blocked with 0.01% Triton X-100 and 2% BSA in PBS. Promastigotes and amastigotes were incubated with mouse anti-gp46 or anti-p8, respectively at 1:50 or 1:1000 and rat anti-alpha-tubulin antibody at 1:1000. Samples were then probed with A568 anti-mouse and […] secondary antibodies (Molecular Probes). DNA was labeled with Hoescht. Samples were visualized on a Zeiss LSM 880 Inverted confocal Airyscan microscope at 63×; full Z-thicknesses through parasites were obtained. […] For microscopic analysis of mitotic arrest, at least 200 parasites were analyzed per condition per experiment after 48 hrs incubation at compounds' EC50, and the average plus standard error for three experiments was calculated. Representative images were selected from the maximal intensity projections and linearly processed in Adobe Photoshop CS6.
(§1) One reason why MMV676477 might affect parasite cell division is that, like paclitaxel, it might affect microtubule polymerization, either directly or indirectly. The degree to which MMV676477 affected microtubules polymerization in cells was examined. […] Centrifugation of these extracts allowed separation of insoluble polymeric (pellet) and soluble dimeric (supernatant) tubulin. […] The intensity of α-tubulin staining was examined by normalizing it to the intensity of a membrane protein (gp46 for promastigotes in FIG. 4D; p8 for amastigotes in FIG. 4E).

Experiment [2] has as its target purified L. tarentolae tubulin (Leishmania tarentolae, UniProt A0A640KCM0+A0A640KQN0). Nature of the experiment: Tubulin polymerization turbidity assay, Leishmania tubulin. Format: biochemical. How it is done:
L. tarentolae (Parrot strain from ATCC) tubulin was purified. Briefly, promastigotes of L. tarentolae were grown to a high density (˜1×10^8 cells/mL), harvested, and resuspended in PME+P buffer containing 100 mM piperazine N, N′-bis (2-ethanesulfonic acid) (PIPES) buffer (pH 6.9), 1 mM glycol ether diamine tetraacetic acid (EGTA), 1 mM MgCl2, 1 mM benzamidine, 0.5 mM phenylmethylsulfonyl fluoride, 25 μg/ml leupeptin. The resulting suspension was extensively sonicated on ice with a probe sonicator (Misonix), cooled on ice for 30 minutes and centrifuged at 40,000×g for 1 hour at 4° C. using an ultracentrifuge (Beckman, Fullerton, CA). The resulting supernatant was filtered through a glass wool or 0.45-micron filter before loading into an equilibrated DEAE-Sepharose Fast Flow matrix (Amersham Biosciences). The column was washed with two column volumes of PME+P and subsequently four column volumes PME+P containing 0.1 M KCl and 0.25 M glutamate (pH 6.9). Tubulin was eluted with two column volumes PME+P containing 0.3 M KCl and 0.75 M glutamate (pH 6.9), and tubulin-rich fractions were confirmed by tubulin polymerization assays. The assembly-competent tubulin was pooled together and diluted into 1×PME buffer, 2 mM GTP, 10 mM MgCl2 and 8% DMSO (v/v). Tubulin was incubated in this buffer for 45 minutes at 30° C. to promote assembly, centrifuged at 50,000×g at 30° C. for 30 min, and re-suspended in 1 mL of ice-cold PME. […] Purity was assessed by SDS-PAGE and Coomassie Blue.
Tubulin polymerization assays were performed in 96-well half-area microplates (Costar) in a final volume of 100 μL. […] The absorbance at 340 nm was recorded in a Synergy H1 microplate reader (BioTek) for up to 45 min at 37° C. […]
To determine whether MMV676477 directly regulates microtubule assembly, assembly-competent tubulin from Leishmania tarentolae was purified and analyzed (FIG. 5A). […] 3 mg/mL purified L. tarentolae tubulin (3 mg/mL) was treated with serial dilutions of MMV676477 while the absorbance was measured at 340 nm over time.

Experiment [3] deals with L. amazonensis axenic amastigotes. Nature of the experiment: alamarBlue viability / concentration-response assay, axenic amastigotes. Conditions: Leishmania amazonensis, 72 h, L. amazonensis, stage not stated; read-out: EC50^72 h for La. Format: cell-based, Leishmania amazonensis. As to the method: Leishmania amazonensis axenic amastigotes (100 μL, 2×10^6 cells/mL) were added to 96-multiwell plates containing 100 μL of amastigote culture medium with an appropriate compound dilution series. 0.1% DMSO (no drug) served as a positive control (100%), and 5 μM amphotericin B served as a negative growth control (0%). Only internal wells were used to minimize edge effects from evaporation. Axenic amastigotes were incubated at 32° C. with a compound/drug for 72 h prior to measurement. Similarly, the cytotoxicity of each compound was determined against RAW 264.7 cells and HepG2 cell lines, following 72 h incubation at 37° C. (promastigotes at 26° C.).
10% alamarBlue® (Thermo Fisher Scientific) was used to measure the growth of both parasite and mammalian cells. Conversion from a blue oxidized state to a pink reduced state was assessed visually at 6 hr. The fluorescence signal was measured with a BioTek Synergy H1 plate reader (530 nm excitation, 570 nm emission). For bioluminescence assays using L. amazonensisluc, relative luminescence units (RLU) were measured using Britelite Plus (PerkinElmer, USA). Luminescence produced by this luciferase reaction is proportional to the amount of luciferase-expressing, viable L. amazonensisluc. Following five-minute incubation at room temperature, the luminescence was measured with a BioTek Synergy H1 plate reader.
All experiments were conducted as three technical triplicates on the same plate, with at least three independent biological repeats of each plate performed. For all assays, percent growth was expressed as a proportion of the untreated (positive) control (i.e. 100%) and plotted against drug/compound concentration. The concentration was then log10 transformed and EC50 values were determined using nonlinear regression (sigmoidal dose-response/variable slope equation) in GraphPad Prism v5.0 (GraphPad Software, Inc., San Diego, CA).
To identify antileishmanial compounds, a microplate-based alamarBlue® assay was used to quickly triage the 400 drug-like compounds available in the MMV Pathogen Box collection. […] A three-step process was used to screen the Pathogen Box: 1) identify hits against axenic amastigotes, 2) confirm the inhibitory concentrations of these hits against axenic amastigotes, 3) evaluate hits for potency against intracellular parasites using fluorescence and bioluminescence-based intracellular assays. The MMV Pathogen Box resource was tested at two concentrations (5 μM and 1 μM, 72 h endpoint) on axenic amastigotes.
Hits were defined as compounds that, at a concentration of 1 μM, decreased the relative fluorescence intensity signal to ≤70% of that produced by parasites incubated in vehicle (0.06% DMSO) only (FIG. 9).

Experiment [4] deals with T1, purified porcine tubulin (Sus scrofa, UniProt P02550+P02554).
T1 construct: purchased Cytoskeleton, Inc. T240
Nature of the experiment: Tubulin polymerization turbidity assay, mammalian tubulin. It is filed as biochemical. As to the method: Tubulin polymerization assays were performed in 96-well half-area microplates (Costar) in a final volume of 100 μL. Briefly, Leishmanial or porcine tubulin (>99% pure, Cat. #T240, Cytoskeleton, Inc.) in 50 μL volume was pre-treated with drugs on ice for 5 minutes before adding 50 μL ice cold buffer, to provide a final concentration of 3 mg/ml tubulin in 80 mM PIPES pH 6.9, 2 mM MgCl2, 0.5 mM EGTA, 1 mM GTP, and 1% DMSO unless specified otherwise. The absorbance at 340 nm was recorded in a Synergy H1 microplate reader (BioTek) for up to 45 min at 37° C. (porcine tubulin) or 30° C. (L. tarentolae tubulin).
(§2) To determine the selectivity of MMV676477, purified porcine tubulin was exposed to a serial dilution of the drug (0 to 25 μM) and absorbance was measured at 340 nm over time. […] To ensure that the absorbance seen at 340 nm reflected microtubule formation and not precipitation, a fluorescent microtubule assembly assay was employed.

The test system of experiment [5] is cellular tubulin of L. amazonensis. Nature of the experiment: Polymerized vs. unpolymerized tubulin in parasites (differential centrifugation, western blot). Format: cell-based, Leishmania amazonensis. Particulars: 24 h at EC50^72 h, densitometry.
Excerpt: as §1
For orientation: Immunoblotting shows a protein as a band on a membrane.

For experiment [6], the target named is T1, purified porcine tubulin. Nature of the experiment: Fluorescent microtubule assembly assay. Format: biochemical. Conditions: mammalian tubulin, fluorescence micrographs. As to the method:
as §2

As a reminder, the EC50 is the concentration that produces a half-maximal response.

SMILES strings stand for the structures.

As to `CC(=O)O[C@H]1C(=O)[C@@]2(C)[C@H]([C@H](OC(=O)c3ccccc3)[C@]3(O)C[C@H](OC(=O)[C@H](O)[C@@H](NC(=O)c4ccccc4)c4ccccc4)C(C)=C1C3(C)C)[C@]1(OC(C)=O)CO[C@@H]1C[C@@H]2O` [paclitaxel], in experiment [1], the “tubulin intensity over control (DMSO-treated)” value was “significant two-fold increase in tubulin intensity”. In addition, the concentration giving a half-maximal response (EC50) in experiment [2] came out at 1300 nM; in experiment [3], 760 nM; at purified porcine tubulin [4] (3 mg/ml tubulin, 1% DMSO, A340), 1500 ± 200 nM. In addition, at purified porcine tubulin [4] (mammalian tubulin), the “Maximum absorbance (A340, 10% DMSO)” value is on record as 0.36. The “proportion of cellular polymeric tubulin” value in experiment [5] is recorded as “significantly increased the proportion of cellular polymeric tubulin”. Also, the “microtubules formed vs control” value on purified porcine tubulin [6] is given as “many more microtubules were formed”.
